# Results: patent US20140228314A1, “METHOD FOR PREPARATION OF CHITOSAN OLiGOSACCHARIDES COMPOSITION AND MIXTURE OF CHITOSAN OLiGOSACCHARIDES PREPARED THEREFROM” (KUNPOONG BIO CO., LTD, priority 2013, published 2014)
# Test system: SD rats
# Assay: Inhibition of postprandial blood glucose rise per saccharide (sucrose load)
# Assay type: in vivo, rat
# Details: 100 mg/kg oral with 2 g/kg sucrose, control 207.8
# Protocol: To SD rats, 100 mg/kg (based on body weight) of each of standard substances from monosaccharide to tetra-saccharide and 2 g/kg (based on body weight) of sucrose were orally administered by 1 ml/rat using an oral administration sonde. At 30 minutes, 60 minutes and 120 minutes after the oral administration, blood was collected from the tail vein of each SD rat and a change in blood glucose concentration in venous blood was measured using a blood glucose meter (CareSens II).
row,Structure (SMILES),blood glucose at 30 minutes after the meal [mg/dL]
1,N[C@H]1[C@H](O[C@H]2[C@H](O)[C@@H](N)C(O)O[C@@H]2CO)O[C@H](CO)[C@@H](O)[C@@H]1O (stereo partly drawn) [disaccharide],177.6
2,N[C@H]1C(O)O[C@H](CO)[C@@H](O)[C@@H]1O (stereo partly drawn) [monosaccharide],210.7
3,N[C@H]1[C@H](O[C@H]2[C@H](O)[C@@H](N)[C@H](O[C@H]3[C@H](O)[C@@H](N)C(O)O[C@@H]3CO)O[C@@H]2CO)O[C@H](CO)[C@@H](O)[C@@H]1O (stereo partly drawn) [trisaccharide],179.4
